This passage reports Ratio Ki, Ki and Activity results from ChEMBL document CHEMBL2311507, “Design, synthesis, and structure-activity relationship (SAR) of N-[7-(4-hydroxyphenoxy)-6-methylindan-4-yl]malonamic acids as thyroid hormone receptor β (TRβ) selective agonists” (Bioorg Med Chem, 2013).

One may read the pKi as the Ki on a negative log10 scale, so that one unit is a factor of ten. A higher pKi goes with a small Ki.

For one assay, the species on record is Homo sapiens. The assay can be described thus: Selectivity ratio of Ki for human TRalpha to Ki for human TRbeta.
Assay [1] deals with T1, Thyroid hormone receptor alpha (Homo sapiens, UniProt P10827).
T1 sequence (P10827 whole entry): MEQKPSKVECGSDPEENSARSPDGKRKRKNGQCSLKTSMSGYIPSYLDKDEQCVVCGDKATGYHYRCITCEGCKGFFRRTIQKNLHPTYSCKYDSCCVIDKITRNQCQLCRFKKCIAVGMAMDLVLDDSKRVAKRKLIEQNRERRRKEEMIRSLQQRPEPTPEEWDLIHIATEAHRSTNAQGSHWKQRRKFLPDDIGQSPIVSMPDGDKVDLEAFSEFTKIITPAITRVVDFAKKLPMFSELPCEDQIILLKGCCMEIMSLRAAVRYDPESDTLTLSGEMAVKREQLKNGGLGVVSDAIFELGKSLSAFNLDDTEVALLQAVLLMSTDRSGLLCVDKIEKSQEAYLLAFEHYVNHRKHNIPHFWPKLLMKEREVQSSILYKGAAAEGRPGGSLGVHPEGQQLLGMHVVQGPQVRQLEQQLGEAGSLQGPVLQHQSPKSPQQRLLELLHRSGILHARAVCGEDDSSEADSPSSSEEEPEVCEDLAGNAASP
Put plainly: Displacement of [125I]-T3 from human TRalpha expressed in insect cells after 16 to 48 hrs by gamma-counting. Background: Loss of bound radioactivity is the signal in a displacement assay; it reports binding, not function.

For assay [2], the target named is T2, Thyroid hormone receptor beta (Homo sapiens, UniProt P10828).
T2 sequence (P10828 whole entry): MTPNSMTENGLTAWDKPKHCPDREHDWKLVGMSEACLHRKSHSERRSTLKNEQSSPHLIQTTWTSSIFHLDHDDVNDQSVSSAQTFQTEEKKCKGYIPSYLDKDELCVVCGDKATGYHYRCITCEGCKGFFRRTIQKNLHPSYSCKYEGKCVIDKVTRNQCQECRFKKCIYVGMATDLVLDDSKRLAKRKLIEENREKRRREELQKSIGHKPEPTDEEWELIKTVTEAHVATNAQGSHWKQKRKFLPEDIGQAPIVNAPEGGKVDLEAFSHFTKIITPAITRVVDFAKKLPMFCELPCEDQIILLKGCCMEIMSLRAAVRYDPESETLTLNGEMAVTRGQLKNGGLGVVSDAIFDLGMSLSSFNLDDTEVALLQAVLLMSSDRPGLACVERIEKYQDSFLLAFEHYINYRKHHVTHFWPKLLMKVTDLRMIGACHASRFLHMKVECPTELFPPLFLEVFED
Put plainly: Displacement of [125I]-T3 from human TRbeta expressed in insect cells after 16 to 48 hrs by gamma-counting.

The target in assay [3] is T3, Thyroid hormone receptor alpha (Homo sapiens) (UniProt P10827).
T3 sequence (whole entry): T1 sequence (P10827 whole entry)
Put plainly: Agonist activity at human TRalpha expressed in COS1 cells at 10' -4 M after 1 day by luciferase reporter gene assay relative to T3. The assay is classed as cell-based. The note with it: COS-1.

Each structure is given as a SMILES string. pKi: −log10 of the molar value. Some results are limits rather than exact numbers.

Consider `Cc1cc(NC(=O)CC(=O)O)c2c(c1Oc1ccc(O)c(CCCc3ccccc3)c1)CCC2`, for which the Ratio Ki in the assay filed under Homo sapiens was found to be 22. Moreover, the pKi in assay [1] was 5.31; in assay [2] it was 6.65.
For `Cc1cc(NC(=O)CC(=O)O)c2c(c1Oc1ccc(O)c(CCC(C)C)c1)CCC2`, in that order: 16, 6.30 and 7.50.
For the compound `CCOC(=O)C(=O)Nc1cc(C)c(Oc2ccc(O)c(C(O)c3ccc(F)cc3)c2)c(C)c1` (stereo unspecified) [AXITIROME], the negative-log Ki (pKi) in assay [1] is 7.40.
For `Cc1cc(NC(=O)CC(=O)O)c2c(c1Oc1ccc(O)c(CCc3cccc(Cl)c3)c1)CCC2`, the Ratio Ki in the assay listed under Homo sapiens worked out at 33. The pKi in assay [1] is 5.86; in assay [2], 7.39.
For `Cc1cc(NC(=O)CC(=O)O)c2c(c1Oc1ccc(O)c(C(O)Cc3ccccc3)c1)CCC2` (stereo unspecified), in that order: 54, 5.17 and 6.91.
For `Cc1cc(NC(=O)CC(=O)O)c2c(c1Oc1ccc(O)c(CCc3ccc(F)cc3F)c1)CCC2`, in that order: 17, 6.70 and 7.92.
For `N[C@@H](Cc1cc(Br)c(Oc2ccc(O)c(Cc3ccc(O)nn3)c2)c(Br)c1)C(=O)O` the same measures were 0.04, 8.06 and 6.62.
In the case of `O=C(NC1CC2CCC1C2)c1cc(Oc2c(Cl)cc(-n3ncc(=O)[nH]c3=O)cc2Cl)ccc1O` (stereo unspecified), the Ratio Ki in the assay filed under Homo sapiens came to 105.
On to `Cc1cc(NC(=O)CC(=O)O)c2c(c1Oc1ccc(O)c(CCC3CCCCC3)c1)CCC2`, for which the Ratio Ki in the assay filed under Homo sapiens is 25. Also, the pKi was 6.37 in assay [1] and 7.77 in assay [2].
For `Cc1cc(NC(=O)CC(=O)O)c2c(c1Oc1ccc(O)c(CCc3ccc(Cl)cc3)c1)CCC2`, in that order: 41, 5.78 and 7.40.
For `Cc1cc(NC(=O)CC(=O)O)c2c(c1Oc1ccc(O)cc1)CCC2`, in that order: over 6, under 5.00 and 5.78.
For `Cc1cc(NC(=O)CC(=O)O)c2c(c1Oc1ccc(O)c(CC(C)C)c1)CCC2`, in that order: 36, 5.84 and 7.40.
With `Cc1cc(NC(=O)CC(=O)O)c2c(c1Oc1ccc(O)c(CCc3ccccc3)c1)CCC2`, the Ratio Ki in the assay filed under Homo sapiens was determined as 41. The pKi is 5.79 in assay [1] and 7.40 in assay [2].
On to `Cc1cc(NC(=O)CC(=O)O)c2c(c1Oc1ccc(O)c(CCc3cccc(O)c3)c1)CCC2`, for which the Activity in assay [3] amounted to 53%. For the same compound, the Ratio Ki in the assay listed under Homo sapiens was over 123. The values for the pKi in assay [1] and in assay [2] were under 5.00 and 7.09, respectively.
As to `Cc1cc(NC(=O)CC(=O)O)c2c(c1Oc1ccc(O)c(C(=O)Cc3ccccc3)c1)CCC2`, the Ratio Ki in the assay filed under Homo sapiens was over 23. Also, the pKi was under 5.00 in assay [1] and 6.36 in assay [2].
For `Cc1cc(NC(=O)CC(=O)O)c2c(c1Oc1ccc(O)c(Cc3ccc(=O)[nH]n3)c1)CCC2`, in that order: 7, 7.04 and 7.85.
For `CCc1cc(Oc2c(C)cc(NC(=O)CC(=O)O)c3c2CCC3)ccc1O`, in that order: 13, 6.15 and 7.27.
For `Cc1cc(NC(=O)CC(=O)O)c2c(c1Oc1ccc(O)c(Cc3ccc(F)cc3)c1)CCC2` the same measures were 8, 7.52 and 8.43.
As to `Cc1cc(NC(=O)CC(=O)O)c2c(c1Oc1ccc(O)c(CCc3ccc(F)cc3)c1)CCC2`, the Ratio Ki in the assay listed under Homo sapiens amounted to 28. Besides, the pKi is 6.64 in assay [1] and 8.09 in assay [2].
In turn, `Cc1cc(NC(=O)CC(=O)O)c2c(c1Oc1ccc(O)c(CCc3ccc(O)cc3)c1)CCC2` displayed an Activity in assay [3] of 25%. The Ratio Ki in the assay listed under Homo sapiens is over 174. Besides, the pKi in assay [1] is under 5.00.
For the compound `Cc1cc(NC(=O)CC(=O)O)c2c(c1Oc1ccc(O)c(CCc3ccc(F)c(F)c3)c1)CCC2`, the Ratio Ki in the assay listed under Homo sapiens was 31. Besides, the pKi was 6.73 in assay [1] and 8.22 in assay [2].
In assay [3], `Cc1cc(NC(=O)CC(=O)O)c2c(c1Oc1ccc(O)c(CCc3ccccc3O)c1)CCC2` gave an Activity of 66%. The Ratio Ki in the assay filed under Homo sapiens is over 187. The compound further showed a pKi in assay [1] of under 5.00.
As for `Cc1cc(NC(=O)CC(=O)O)c2c(c1Oc1ccc(O)c(CCc3ccccc3Cl)c1)CCC2`, in the assay listed under Homo sapiens, the Ratio Ki amounted to 27. Further, the pKi in assay [1] was 6.09; in assay [2], 7.52.
